# Experimental data taken from paper PMC9667936, “Functional mapping of the 14-3-3 hub protein as a guide to design 14-3-3 molecular glues” (Chemical Science, 2022).
# Where a SMILES comes first, the peptide text is derived from it. [ ]: non-standard residue; d: D form. The star is where a group is joined. ξ: configuration not given here. FITC = O=C1OC2(c3ccc(O)cc3Oc3cc(O)ccc32)c2ccc(NC(=S)*)cc21; Phe(4-NO2) = N[C@@H](Cc1ccc([N+](=O)[O-])cc1)C(=O)O; ξAla(4-thiazolyl) = NC(Cc1cscn1)C(=O)O; pS = N[C@@H](COP(=O)(O)O)C(=O)O; β3hS = N[C@@H](CO)CC(=O)O; Nva = CCC[C@H](N)C(=O)O; ξβ3hS = NC(CO)CC(=O)O; βAla = NCCC(=O)O
# How the values were obtained:
# [1] = target: T1, 14-3-3γ/ChREBP (Homo sapiens, UniProt P61981+Q9NP71); experiment: 2D FA titration of 14-3-3/ChREBP and cooperativity analysis with thermodynamic equilibrium model; format: binding; conditions: 14-3-3γ/ChREBP/2d ternary complex; 2D FA titration (20 nM FITC-2d, 0.01–10 μM ChREBP) fitted to thermodynamic equilibrium model; n = 2
# T1 construct: made in house; host or cells: E. coli NiCo21 (DE3) for 14-3-3 gamma; ChREBP is a synthetic peptide
# T1 sequence (P61981 1-247): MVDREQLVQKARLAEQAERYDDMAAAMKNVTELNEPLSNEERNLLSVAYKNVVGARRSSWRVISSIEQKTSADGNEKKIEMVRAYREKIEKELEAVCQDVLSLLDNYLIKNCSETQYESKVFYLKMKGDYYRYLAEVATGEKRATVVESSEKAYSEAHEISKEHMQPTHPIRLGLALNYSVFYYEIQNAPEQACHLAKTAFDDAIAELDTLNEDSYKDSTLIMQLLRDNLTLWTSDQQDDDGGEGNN
# T1 sequence (Q9NP71 118-142 partner limits assumed): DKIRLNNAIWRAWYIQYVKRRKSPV
# Protocol: (§1) a four-parameter logistic model (4PL). Each measurement was performed in two independent […]
# (§2) Fluorescence anisotropy (FA) - 2D-14-3-3/ChREBP titrations: 14-3-3γ was titrated in a 2-fold dilution series (starting at 300 µM 14-3-3γ) to 20 nM of fluorescein-labeled peptide 2d in FA buffer (10 mM HEPES pH 7.4, 150 mM NaCl, 0.1% (v/v) Tween20, 0.1% (w/v) BSA) in presence of 2-fold dilution series of unlabeled ChREBP peptide (0.01-10 µM). Dilution series were made in a polystyrene (non-binding) low-volume Corning Black Round Bottom 384-well plates (Corning 4514 or 4511). Measurements were performed directly after plate preparation, using a Tecan Infinite F500 plate reader at room temperature (lex: 485 ± 20 nm; lem: 535 ± 25 nm; mirror: Dichroic 510; flashes: 20; integration time: 50 ms; settle time:
# (§3) 0 ms; gain: optimal; and Z-position: calculated from well). Wells containing only FITC-peptide were used to set as G-factor at 35 mP. All data were analyzed using GraphPad Prism (7.00) for Windows and fitted using a four-parameter logistic model (4PL). […]
# (§4) with R = 14-3-3, P = non-natural peptide (labelled), and C = ChREBP. The framework determined based on this system description the equilibrium equations needed to determine KDII and α. […] From this the model determined the KDII and α (with 95% confidence interval) and the error-landscape of the determine parameters. […]
# [2] = system: 14-3-3γ with partner peptides (ChREBP, ERα, SOS1, B-Raf, ERRγ, USP8, PIN1, p65); experiment: FA selectivity study: 14-3-3 partner peptides titrated to preformed 14-3-3γ/FITC-2d complex; format: binding, human; conditions: partner peptides titrated (from 100 μM) to 2 μM 14-3-3γ and 20 nM FITC-2d; n = 2
# Protocol: as §1, §2, §3, §4
# [3] = target: 14-3-3; conditions: hits of a 10^8-membered synthetic non-canonical phosphopeptide library; read-out: affinity for 14-3-3; cited from earlier work
# Source text: We selected peptide 14-3-3.12, herein termed peptide 1, from the top hits for functional mapping. […] Further, the peptide completely occupies the 14-3-3 binding groove, thus allowing to explore both sides flanking 14-3-3's central phospho-accommodating pocket.
SMILES,cooperativity factor α [1],selectivity of ternary complex formation over a panel of 14-3-3 partner peptides [2],Kd [3] [nM]
C[C@H](NC(=O)[C@H](CCCCN)NC(=O)[C@H](Cc1ccc([N+](=O)[O-])cc1)NC(=O)CCNC(=O)C[C@H](CO)NC(=O)[C@H](Cc1ccc([N+](=O)[O-])cc1)NC(=O)[C@@H](N)COP(=O)(O)O)C(=O)N[C@@H](CCCCNC(=S)Nc1ccc2c(c1)C(=O)OC21c2ccc(O)cc2Oc2cc(O)ccc21)C(N)=O [2d] (H-[pS][Phe(4-NO2)][β3hS][βAla][Phe(4-NO2)]KAK(FITC)-NH2),36,highly selective ternary complex formation,–
CCC[C@H](NC(=O)[C@H](N)CCCCN)C(=O)N[C@@H](Cc1ccc([N+](=O)[O-])cc1)C(=O)NC(Cc1cscn1)C(=O)N[C@@H](COP(=O)(O)O)C(=O)N[C@@H](Cc1ccc([N+](=O)[O-])cc1)C(=O)NC(CO)CC(=O)NCCC(=O)N[C@@H](Cc1ccc([N+](=O)[O-])cc1)C(=O)N[C@@H](CCCCN)C(N)=O (stereo partly drawn) [compound 1] (H-[dK][Nva][Phe(4-NO2)][ξAla(4-thiazolyl)][pS][Phe(4-NO2)][ξβ3hS][βAla][Phe(4-NO2)]K-NH2),–,–,19
